Values after ≈ are worked out from the molar mass of the structure shown.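 48-hour exposure; five concentrations; linearly interpolated endpoints. At the GI50, growth is halved. Definition used: TGI = concentration required for complete inhibition of growth.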
Key:
Assay in all cases: DTP human tumour cell line panel, 48 h
IGROV1 ovarian = system: IGROV1 ovarian
SK-MEL-28 melanoma = system: SK-MEL-28 melanoma
OVCAR-4 ovarian = system: OVCAR-4 ovarian
NCI-H460 lung = system: NCI-H460 lung
OVCAR-5 ovarian = system: OVCAR-5 ovarian
HOP-92 NSCLC = system: HOP-92 NSCLC
SF-268 CNS = system: SF-268 CNS
MCF7 breast = system: MCF7 breast
BT-549 breast = system: BT-549 breast
PC-3 prostate = system: PC-3 prostate
NCI-H226 lung = system: NCI-H226 lung

SMILES	TGI (IGROV1 ovarian)	TGI (SK-MEL-28 melanoma)	TGI (OVCAR-4 ovarian)	TGI (NCI-H460 lung)	TGI (OVCAR-5 ovarian)	TGI (HOP-92 NSCLC)	TGI (SF-268 CNS)	TGI (MCF7 breast)	TGI (BT-549 breast)	TGI (PC-3 prostate)	TGI (NCI-H226 lung)	GI50 (IGROV1 ovarian)	GI50 (NCI-H226 lung)	GI50 (SK-MEL-28 melanoma)	GI50 (OVCAR-4 ovarian)	GI50 (NCI-H460 lung)	GI50 (OVCAR-5 ovarian)	GI50 (HOP-92 NSCLC)	GI50 (SF-268 CNS)	GI50 (MCF7 breast)
COc1c(O)cc(C(=O)O[C@@H]2Cc3c(O)cc(O)cc3O[C@@H]2c2cc(O)c(O)c(O)c2)cc1O	> 100 µM	> 100 µM	46.4 µM	66.7 µM	> 100 µM	> 100 µM	46.7 µM	42 µM	65.2 µM	> 100 µM	–	–	–	–	–	–	–	–	–	–
Cc1cc(C#N)c(Nc2c(C)cccc2[N+](=O)[O-])s1	–	> 100 µM	> 100 µM	> 100 µM	> 100 µM	68.3 µM	84.9 µM	–	80.6 µM	54.4 µM	> 100 µM	–	–	–	–	–	–	–	–	–
COc1cc2c(cc1OC)C(Cc1c3ccccc3cc3ccccc13)N(C)CC2 (stereo not drawn)	65.4 µM	46.8 µM	> 100 µM	61.3 µM	40.2 µM	35 µM	> 100 µM	33.7 µM	–	–	60.2 µM	–	–	–	–	–	–	–	–	–
CCOP(C)(=O)C(Nc1ccc(F)cc1)c1ccc(F)cc1 (stereo not drawn)	> 100 µM	> 100 µM	> 100 µM	> 100 µM	> 100 µM	> 100 µM	> 100 µM	–	–	> 100 µM	> 100 µM	–	–	–	–	–	–	–	–	–
S=C(Nc1ccccc1)N1N=C2c3ccccc3CC[C@H]2[C@@H]1c1ccccc1	> 100 µM	> 100 µM	> 100 µM	> 100 µM	> 100 µM	–	> 100 µM	–	–	–	> 100 µM	–	–	–	–	–	–	–	–	–
Cn1c(=O)c2nc(N3CCCCC3)cnc2n(C)c1=O	> 100 µM	> 100 µM	> 100 µM	> 100 µM	> 100 µM	> 100 µM	> 100 µM	–	–	–	–	–	–	–	–	–	–	–	–	–
O=C1C[C@H]2[C@H](c3ccc(Br)cc3)[C@H]3C(=O)c4ccccc4NC(=O)[C@@H]3[C@@]2(O)c2ccccc2N1	33.4 µM	> 100 µM	> 100 µM	> 100 µM	91.9 µM	4.96 µM	> 100 µM	77.2 µM	–	> 100 µM	> 100 µM	–	–	–	–	–	–	–	–	–
CC(=O)Nc1ccc(-c2nc3ccccc3s2)cc1O	57.7 µM	> 100 µM	> 100 µM	> 100 µM	93.8 µM	> 100 µM	> 100 µM	–	–	> 100 µM	45.9 µM	–	–	–	–	–	–	–	–	–
COc1cc(OC)nc(Nc2c(C#N)c3nc4ccccc4n3c3ccccc23)n1	> 100 µM	> 100 µM	78.7 µM	> 100 µM	> 100 µM	–	> 100 µM	> 100 µM	63 µM	> 100 µM	> 100 µM	–	–	–	–	–	–	–	–	–
N#CC(c1cc(Cl)ncn1)c1nc2ccccc2s1 (stereo not drawn)	22 µM	42.9 µM	91 µM	> 100 µM	59.3 µM	11.1 µM	18.3 µM	–	15.2 µM	–	> 100 µM	–	–	–	–	–	–	–	–	–
CN1OC2OC(=O)OC2[C@H]1[C@H]1O[C@H](c2ccccc2)OC1(C)c1cc(OC(=O)c2ccccc2)ccc1OC(=O)c1ccccc1 (stereo partly drawn)	> 50 µM	> 50 µM	> 50 µM	> 50 µM	> 50 µM	> 50 µM	> 50 µM	–	–	–	> 50 µM	–	–	–	–	–	–	–	–	–
O=C1NN(c2ccccc2)C(=O)C2C3c4ccccc4C(c4ccccc43)C12 (stereo not drawn)	> 100 µM	> 100 µM	> 100 µM	> 100 µM	–	> 100 µM	> 100 µM	> 100 µM	–	> 100 µM	> 100 µM	–	–	–	–	–	–	–	–	–
CCNCCCCNCC	> 3750 µM	> 3750 µM	> 3750 µM	> 1190 µM	> 3750 µM	> 3750 µM	> 3750 µM	> 3750 µM	–	–	> 3750 µM	–	–	–	–	–	–	–	–	–
CC[C@]12C=CCN3CCC4(c5cc([C@@]6(C(=O)OC)CC7CN(CCc8c6[nH]c6ccccc86)C[C@@H]6CCC[C@H]76)c(OC)cc5N(C)C4[C@](O)(C(=O)OC)C1OC(C)=O)C32 (stereo partly drawn)	7.31 µM	> 10 µM	> 8.93 µM	> 4.71 µM	> 10 µM	> 10 µM	1.6 µM	> 10 µM	–	> 10 µM	1.5 µM	–	–	–	–	–	–	–	–	–
NC(N)=Nc1nc2ccccc2[nH]1	> 150 µg/mL	> 150 µg/mL	55.5 µg/mL	> 150 µg/mL	> 150 µg/mL	> 150 µg/mL	> 150 µg/mL	79.4 µg/mL	–	–	> 150 µg/mL	23.7 µg/mL (≈ 135 µM)	55.3 µg/mL (≈ 315 µM)	135 µg/mL (≈ 769 µM)	22.1 µg/mL (≈ 126 µM)	36.5 µg/mL (≈ 209 µM)	27.8 µg/mL (≈ 159 µM)	103 µg/mL (≈ 588 µM)	128 µg/mL (≈ 732 µM)	1.05 µg/mL (≈ 6.01 µM)
CC1=C2C(O)C(C(C)C(=O)NC(C)C)CCC2(C)C=CC1=O (stereo not drawn)	> 100 µM	> 100 µM	> 100 µM	> 100 µM	> 100 µM	> 100 µM	> 100 µM	> 100 µM	–	–	> 100 µM	–	–	–	–	–	–	–	–	–
Cc1cc(N=Nc2ccc(N=Nc3c(O)c(S(=O)(=O)O)cc4cc(S(=O)(=O)O)ccc34)cc2C)ccc1N=Nc1ccc2cc(S(=O)(=O)O)cc(S(=O)(=O)O)c2c1	> 100 µM	> 100 µM	> 100 µM	> 100 µM	> 100 µM	> 100 µM	> 100 µM	> 100 µM	–	–	> 100 µM	–	–	–	–	–	–	–	–	–
O=C(O)CNS(=O)(=O)c1ccc(NC(=O)Nc2ccccc2)cc1	> 54.4 µM	> 100 µM	> 100 µM	> 100 µM	> 100 µM	> 100 µM	> 100 µM	> 100 µM	–	–	> 100 µM	–	–	–	–	–	–	–	–	–
N#Cc1c2nc3ccccc3nc2n2ccc3ccccc3c12	> 100 µM	> 100 µM	> 100 µM	> 100 µM	> 100 µM	> 100 µM	> 100 µM	–	–	–	> 100 µM	–	–	–	–	–	–	–	–	–
O=c1[nH]c(=O)n(C2CC(O)C(CO)O2)cc1C#Cc1cc(F)cc(F)c1 (stereo not drawn)	> 100 µM	> 100 µM	> 100 µM	> 100 µM	> 100 µM	–	> 100 µM	–	–	–	> 100 µM	–	–	–	–	–	–	–	–	–
COc1cc2c(cc1O)C(C)Cc1cc3c(cc1N(C)CC2)OCO3 (stereo not drawn)	73.3 µM	45.8 µM	> 65.2 µM	37.7 µM	54.9 µM	18 µM	36.2 µM	–	–	–	19.3 µM	–	–	–	–	–	–	–	–	–
